Results reported in PubChem BioAssay (NCI).
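Test compounds were applied to cells in 96-well plates for 48 hours at 5 doses. Here, GI50 denotes the concentration required for 50% inhibition of growth. TGI marks complete inhibition of growth.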

Tests used:
Experiment in all cases: growth of human tumour cells (NCI), 48 h
[1] = test system: ACHN renal
[2] = test system: HCT-116 colon
[3] = test system: HL-60(TB) leukemia
[4] = test system: KM12 colon
[5] = test system: LOX IMVI melanoma
[6] = test system: M14 melanoma
[7] = test system: OVCAR-5 ovarian
[8] = test system: SF-268 CNS
[9] = test system: SNB-75 CNS
[10] = test system: UO-31 renal

For CC(=O)N1CCC2(c3ccccc3N(C(C)=O)C2c2ccc(O)cc2)C1C(=O)O (stereo not drawn), the TGI [1] was > 100 µM, the TGI [2] was > 100 µM and the TGI [3] was > 100 µM. For the same compound, the TGI [4] was > 100 µM, the TGI [5] was > 100 µM and the TGI [6] was > 100 µM. The TGI [7] was > 100 µM, the TGI [8] was > 100 µM and the TGI [9] was > 100 µM. The TGI [10] was > 100 µM.
In the case of C=C1C(=O)O[C@H]2[C@H]1CC/C(COC(=O)NCC(C)c1ccc(CC(C)C)cc1)=C\CC[C@@]1(C)O[C@@H]21 (stereo partly drawn), the GI50 [1] is reported as 0.623 µM, the TGI [1] is reported as 1.32 µM and the GI50 [2] is reported as 0.641 µM. It also gave a TGI [2] of 1.32 µM, a GI50 [3] of 0.786 µM and a TGI [3] of 2.83 µM. It also gave a GI50 [4] of 3.53 µM, a TGI [4] of 8.24 µM and a GI50 [5] of 0.506 µM. For the same compound, the TGI [5] was 1 µM, the GI50 [7] was 3.56 µM and the TGI [7] was 7.73 µM. The GI50 [8] was 1.82 µM, the TGI [8] was 6.59 µM and the GI50 [9] was 1.21 µM. For the same compound, the TGI [9] was 5.48 µM, the GI50 [10] was 0.474 µM and the TGI [10] was 0.909 µM.
In the case of CCOC(=O)C(NC(=O)c1nc[nH]c1[N+](=O)[O-])C(C)C (stereo not drawn), the TGI [1] is reported as > 100 µM, the TGI [2] is reported as > 100 µM and the TGI [3] is reported as > 100 µM. The TGI [4] was > 100 µM, the TGI [5] was > 100 µM and the TGI [6] was > 100 µM. For the same compound, the TGI [8] was > 100 µM, the TGI [9] was > 100 µM and the TGI [10] was > 100 µM.
In the case of O=C(N/N=C/c1cccc(F)c1)c1ccncc1, the TGI [1] is reported as > 100 µM, the TGI [2] is reported as > 100 µM and the TGI [3] is reported as > 100 µM. For the same compound, the TGI [4] was > 100 µM, the TGI [5] was > 100 µM and the TGI [6] was > 100 µM. The TGI [8] was > 100 µM and the TGI [9] was > 100 µM.
For Cc1ccccc1NC(=O)C1C(=O)N(c2ccccc2C)C(=O)/C1=N\NC(N)=S (stereo not drawn), the TGI [1] was > 100 µM, the TGI [2] was > 100 µM and the TGI [3] was > 100 µM. For the same compound, the TGI [4] was > 100 µM, the TGI [5] was > 100 µM and the TGI [6] was > 100 µM. For the same compound, the TGI [8] was > 100 µM, the TGI [9] was > 100 µM and the TGI [10] was > 100 µM.
In the case of CCNC(=O)COc1ccc(Cl)cc1Cl, the TGI [1] is reported as > 100 µM, the TGI [2] is reported as > 100 µM and the TGI [3] is reported as > 100 µM. For the same compound, the TGI [4] was > 100 µM, the TGI [6] was > 100 µM and the TGI [7] was > 100 µM. The TGI [8] was > 100 µM, the TGI [9] was > 100 µM and the TGI [10] was > 100 µM.
CC(C)(Oc1ccc(/C=C/C(=O)c2ccc(Cl)cc2)cc1)C(=O)Nc1c(Cl)cccc1Cl was tested, and the TGI [1] was 53 µM, the TGI [2] was 18.5 µM and the TGI [4] was 25 µM. For the same compound, the TGI [5] was 31 µM, the TGI [6] was 36.7 µM and the TGI [7] was > 100 µM. It also gave a TGI [8] of 90.2 µM, a TGI [9] of 97.5 µM and a TGI [10] of 54.2 µM.
In the case of COc1ccc(/C(=N\NC(=S)NN)C(c2ccc(OC)cc2)C2C(=O)Oc3ccccc32)cc1 (stereo not drawn), the GI50 [1] is reported as > 100 µM, the TGI [1] is reported as > 100 µM and the GI50 [2] is reported as > 100 µM. For the same compound, the TGI [2] was > 100 µM, the GI50 [3] was > 100 µM and the TGI [3] was > 100 µM. The GI50 [4] was > 100 µM, the TGI [4] was > 100 µM and the GI50 [6] was > 100 µM. For the same compound, the TGI [6] was > 100 µM, the GI50 [7] was > 100 µM and the TGI [7] was > 100 µM. The GI50 [8] was > 100 µM, the TGI [8] was > 100 µM and the GI50 [9] was > 100 µM. For the same compound, the TGI [9] was > 100 µM, the GI50 [10] was > 100 µM and the TGI [10] was > 100 µM.
With N#Cc1ccc(NC(=O)C(CC(=O)OCc2ccccc2)NC(=O)OCc2ccccc2)cc1 (stereo not drawn) the GI50 [1] was > 100 µM, the TGI [1] was > 100 µM and the GI50 [2] was > 100 µM. For the same compound, the TGI [2] was > 100 µM, the GI50 [4] was > 100 µM and the TGI [4] was > 100 µM. For the same compound, the GI50 [5] was > 100 µM, the TGI [5] was > 100 µM and the GI50 [6] was > 100 µM. For the same compound, the TGI [6] was > 100 µM, the GI50 [7] was > 100 µM and the TGI [7] was > 100 µM. The GI50 [9] was > 100 µM, the TGI [9] was > 100 µM and the GI50 [10] was > 100 µM. For the same compound, the TGI [10] was > 100 µM.
For Cn1c2c(c3ccccc31)CCN(CCN1CCN(c3cccc(Cl)c3)CC1)C2=O, the TGI [1] was > 100 µM, the TGI [2] was > 100 µM and the TGI [3] was 65.3 µM. The TGI [5] was > 100 µM, the TGI [6] was > 100 µM and the TGI [8] was > 100 µM. The TGI [10] was > 100 µM.
